Each structure is given as a SMILES string. pIC50: −log10 of the molar value.

Test [1] has as its system RAW264.7 murine macrophage-like cells. Conditions: RAW264.7 cells stimulated with LPS; cited from earlier work.
Test [2] has as its system human neutrophils. Kind of test: Human neutrophil migration assay (embelin-induced). Type of test: cell-based.
For test [3], the target named is T1, GPR84 (Homo sapiens, UniProt Q9NQS5).
T1 construct: expressed in transfected cells; membranes used
Conditions: Wang et al. (2006); WO 2007/027661A2; cited from earlier work.

The test system of test [4] is human neutrophils. The experiment in a line: Human neutrophil migration assay (embelin-induced). Conditions: neutrophils from human buffy coat, 30 min compound pre-incubation, migration towards embelin at EC80 for 1 h, ATPlite readout, read-out: human neutrophil migration inhibition (Neutrophils). It is filed as cell-based. In general terms: Cellular ATP, detected with luciferase, serves as a proxy for viable cell number.

Test [5] addresses T1, GPR84. The experiment in a line: GTPγS binding assay (GPR84). The settings on record: membranes from stable cell line over expressing GPR84; 3,3′ di indolylmethane at EC80. It is filed as biochemical. In outline:
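Membranes (20 μg/well) from a stable GPR84-overexpressing line, pre-incubated with 0.1 μM GDP for 15 min at 4° C, mixed with 0.1 nM [35S]GTPγS and WGA SpA beads in 20 mM HEPES pH 7.4, 5 mM MgCl2, 250 mM NaCl, 0.05% BSA, 75 ug/mL saponin; 90 min at room temperature, then scintillation counting.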
On the technique in general: GTPγS resists hydrolysis and so accumulates on activated G proteins.

T1 sequence (Q9NQS5 whole entry): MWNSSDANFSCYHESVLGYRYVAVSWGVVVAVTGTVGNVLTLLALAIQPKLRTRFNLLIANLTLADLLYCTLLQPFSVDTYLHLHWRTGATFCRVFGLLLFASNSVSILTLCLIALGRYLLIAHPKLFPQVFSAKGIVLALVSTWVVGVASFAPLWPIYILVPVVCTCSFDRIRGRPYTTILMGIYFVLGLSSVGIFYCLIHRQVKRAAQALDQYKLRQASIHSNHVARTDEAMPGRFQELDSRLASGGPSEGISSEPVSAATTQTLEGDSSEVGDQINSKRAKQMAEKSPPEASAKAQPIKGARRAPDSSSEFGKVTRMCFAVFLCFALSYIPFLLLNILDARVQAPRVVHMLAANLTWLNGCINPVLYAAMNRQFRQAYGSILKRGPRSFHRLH

`CCCCCCCCCC(=O)O` [capric acid]: the “secretion of interleukin-12 p40 subunit (IL-12 p40)” value (“secretion” for short) in test [1] was “dose dependently increased”.
Regarding `c1ccc2c(Cc3c[nH]c4ccccc34)c[nH]c2c1` [3,3′ di indolylmethane], the “induction of neutrophil chemotaxis by GPR84 agonists” value in the test on human neutrophils [2] was “induce neutrophil chemo taxis”.
As to `CCCCCCCCCCC(=O)O` [undecanoic acid], the “secretion” value in test [1] is given as “dose dependently increased”.
`c1ccc2c(Cc3c[nH]c4ccccc34)c[nH]c2c1` [3,3′ di-indolylmethane]: at GPR84 [3], the GPR84 agonist activity result was “some GPR84 agonist activity”.
On to `CCCCCCCCCCCC(=O)O` [lauric acid], for which the “secretion” value in test [1] is on record as “dose dependently increased”.
In the case of `CCCCCCCCCC(=O)[O-].[Na+]` [sodiumdecanoate], the “induction of neutrophil chemotaxis by GPR84 agonists” value with human neutrophils [2] is on record as “induce neutrophil chemo taxis”.
With `O=c1nc(OC[C@@H]2COCCO2)cc2n1CCc1cc(COCC3CCCC3)ccc1-2` [Compound 147, 9-cyclopentylmethoxymethyl-2-((S)-1-[1,4]dioxan-2-ylmethoxy)-6,7-dihydro-pyrimido[6,1-a]isoquinolin-4-one], the pIC50 in the test with human neutrophils [4] and on GPR84 [5] was 7.00 to 11.00 throughout.
In the case of `O=c1nc(OCC2COCCO2)cc2n1CCc1cc(C#Cc3ccccn3)ccc1-2` (stereo not shown) [Compound 36, 2-([1,4]dioxan-2-ylmethoxy)-9-pyridin-2-ylethynyl-6,7-dihydro-pyrimido[6,1-a]isoquinolin-4-one], the figures for the pIC50 in the test on human neutrophils [4] and on GPR84 [5] were 6.30 to 7.00 and 7.00 to 11.00, respectively.

Source of the values: patent US10047083B2, “Dihydropyrimidinoisoquinolinones and pharmaceutical compositions thereof for the treatment of inflammatory disorders” (GALAPAGOS NV, priority 2011, dated 2018).
